According to PubChem BioAssay AID1963833 (Molecular Pharmacology Branch, DTP, NCI, 2024):

Tested on: 883617-216-R-J1-PDC complex spheroid viability
Experiment: Anticancer human tumor 883617-216-R-J1-PDC patient-derived bladder carcinoma cell line growth inhibition [POLQ]
Details: for IC50: curve of first compound; for viability, T/C: stronger effect = lower value; active = viability on the fitted dose curve at most 10% of control; inactive = the rest
Protocol: Multicellular complex tumor spheroid response to Polymerase (POL) inhibitors (novobiocin, ART-558, RP6685) in combination with a variety of drugs and investigational agents in selected tumor cell lines
The POL inhibitors (novobiocin, ART-558, and RP6685) were evaluated both individually and in combination with standard of care and investigational anticancer small molecules within a complex spheroid model of solid tumors. . Complex spheroids include a stromal component modeled by human endothelial cells (HUVEC) and fibroblasts modeled by human mesenchymal stem cells (MSCs). The concentration ranges selected for each drug and investigational agent were based upon clinically achievable concentrations if the clinical Cmax of the agent was known.
Compounds. The drugs and investigational agents: novobiocin (NSC847541), ART-558 (NSC835418), RP-6685 (NSC848927), peposertib (NSC802822), ceralasertib (NSC780249), elimusertib (NSC800525), camonsertib (NSC841442), AZD-1390 (NSC803789), olaparib (NSC753686), talazoparib (NSC767125), rucaparib (NSC756644), sotorasib (NSC818433), MRTX-1133 (NSC836407), SN-38 (NSC673596), topotecan (NSC609699), epotoside (NSC141540), doxorubicin (NSC123127), gemcitabine (NSC613327), 5-fluorouracil (NSC19893), paclitaxel (NSC125973), vemurafenib (NSC761431), MSA-2 (NSC828583), SN-011 (NSC837082), adavosertib (NSC754352), prexasertib (NSC758257), carboplatin (NSC241240) and oxaliplatin (NSC266046), were obtained from the National Cancer Institute (NCI) Developmental Therapeutics Program Chemical Repository (21). The FDA-approved anticancer drug set is available from the Developmental Therapeutics Program at https://dtp.cancer.gov/organization/dscb/obtaining/. […] The stock solutions were prepared in dimethyl sulfoxide (DMSO, Sigma-Aldrich, St. Louis, MO, cat. D2650), except for the platinum compounds which were prepared in saline (Quality Biological, Gaithersburg, MD, cat. 114-055-101), at 800-fold the tested concentration and stored at -70 degrees C prior to their use. All drugs and investigational agents were tested over a range starting from a high concentration at or near the clinical Cmax and decreasing in half-log increments. If the clinical Cmax for an agent had not been determined, the highest concentration tested was 10 microM, except for SN-38, which was tested at a high concentration of 1 microM.
Cell Culture. All cells were maintained in an incubator at 37 degrees C and 5% CO2 with 95% humidity. The PDC lines were cultured according to standard operating procedures established by the NCI PDMR (https://pdmr.cancer.gov). Table 3 of the manuscript, lists the cell lines along with the number of the three cell types plated to form the mct-spheroids and media for tumor cell growth. After thawing, all PDC lines, except 997537-175-T-J1-PDC and 415267-285-R-J2-PDC, were cultured in Matrigel-coated flasks prepared with a working solution of 1X Ham's F-12 nutrient mix, without supplementation (Thermo Fisher Scientific, cat. 11765054), 100 U/mL penicillin-streptomycin (Thermo Fisher Scientific, cat. 15140122), and 2.5% Matrigel (Corning Inc., Corning, NY, cat. 354248) for the first three passages. The two PDC lines 997537-175-T-J1-PDC and 415267-285-R-J2-PDC were cultured on uncoated flasks. The 857933-349-R-J2-PDC line was cultured in 6C/Colon 1B media containing advanced DMEM/F-12 (Thermo Fisher Scientific, cat. 12634028), 10 mM HEPES (Thermo Fisher Scientific, cat. 15630080), 1X GlutaMAX supplement (Thermo Fisher Scientific, cat. 35050061), 0.1 mg/mL primocin (InvivoGen, San Diego, CA, cat. ant-pm-2), 10% defined fetal bovine serum, heat inactivated (HyClone Laboratories Inc., Logan, UT, cat. SH30070.03HI), 50% L-WRN conditioned media (ATCC, cat. CRL-3276), 1.25 mM N-Acetyl-L-cysteine (Sigma-Aldrich, cat. A9165), 10 mM nicotinamide (Sigma-Aldrich, cat. N0636), 1X B-27 supplement (Thermo Fisher Scientific, cat. 17504044), 1X N-2 supplement (Thermo Fisher Scientific, cat. […]

[1] = second compound 0.0316 µM, first compound 0.0316 µM
[2] = second compound 0.0316 µM, first compound 0.1 µM
[3] = second compound 0.0316 µM, first compound 0.316 µM
[4] = second compound 0.0316 µM, first compound 1 µM
[5] = second compound 0.1 µM, first compound 0.0316 µM
[6] = second compound 0.1 µM, first compound 0.1 µM
[7] = second compound 0.1 µM, first compound 0.316 µM
[8] = second compound 0.1 µM, first compound 1 µM
[9] = second compound 0.316 µM, first compound 0.0316 µM
[10] = second compound 0.316 µM, first compound 0.1 µM
[11] = second compound 0.316 µM, first compound 0.316 µM
[12] = second compound 0.316 µM, first compound 1 µM
[13] = second compound 1 µM, first compound 0.0316 µM
[14] = second compound 1 µM, first compound 0.1 µM
[15] = second compound 1 µM, first compound 0.316 µM
[16] = second compound 1 µM, first compound 1 µM
[17] = second compound 3.16 µM, first compound 0.0316 µM
[18] = second compound 3.16 µM, first compound 0.1 µM
[19] = second compound 3.16 µM, first compound 0.316 µM
[20] = second compound 3.16 µM, first compound 1 µM
[21] = second compound 10 µM, first compound 0.0316 µM
[22] = second compound 10 µM, first compound 0.1 µM
[23] = second compound 10 µM, first compound 0.316 µM
[24] = second compound 10 µM, first compound 1 µM
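Note: spheroids exposed to compounds for seven days before readout.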

C=CCn1c(=O)c2cnc(Nc3ccc(N4CCN(C)CC4)cc3)nc2n1-c1cccc(C(C)(C)O)n1 + Nc1ccc(C#CCN(C(=O)Cc2ncc(C(F)(F)F)cc2C(F)(F)F)c2ccc(F)cc2)nn1
924 nM: IC50 (second compound 10 µM)
> 1000 nM: IC50 (second compound 0.0316 µM) | IC50 (second compound 0.1 µM) | IC50 (second compound 0.316 µM) | IC50 (second compound 3.16 µM)
inactive: viability, T/C (second compound 0.0316 µM, first compound 0.00316 µM) 102% | viability, T/C (second compound 0.0316 µM, first compound 0.01 µM) 98.9% | viability, T/C [1] 84.3% | viability, T/C [2] 113% | viability, T/C [3] 96.4% | viability, T/C [4] 59.8% | viability, T/C (second compound 0.1 µM, first compound 0.00316 µM) 100% | viability, T/C (second compound 0.1 µM, first compound 0.01 µM) 95.6% | viability, T/C [5] 95.8% | viability, T/C [6] 94.1% | viability, T/C [7] 88.3% | viability, T/C [8] 86.8% | viability, T/C (second compound 0.316 µM, first compound 0.00316 µM) 102% | viability, T/C (second compound 0.316 µM, first compound 0.01 µM) 115% | viability, T/C [9] 106% | viability, T/C [10] 108% | viability, T/C [11] 92.4% | viability, T/C [12] 63.6% | viability, T/C (second compound 1 µM, first compound 0.00316 µM) 101% | viability, T/C (second compound 1 µM, first compound 0.01 µM) 96.5% | viability, T/C [13] 81.1% | viability, T/C [14] 101% | viability, T/C [15] 103% | viability, T/C [16] 49% | viability, T/C (second compound 3.16 µM, first compound 0.00316 µM) 115% | viability, T/C (second compound 3.16 µM, first compound 0.01 µM) 109% | viability, T/C [17] 85.7% | viability, T/C [18] 99.3% | viability, T/C [19] 115% | viability, T/C [20] 58.4% | viability, T/C (second compound 10 µM, first compound 0.00316 µM) 126% | viability, T/C (second compound 10 µM, first compound 0.01 µM) 101% | viability, T/C [21] 108% | viability, T/C [22] 116% | viability, T/C [23] 128% | viability, T/C [24] 45.1%
978 nM: IC50 (second compound 1 µM)

CNCc1ccc(-c2[nH]c3cc(F)cc4c3c2CCNC4=O)cc1 + Nc1ccc(C#CCN(C(=O)Cc2ncc(C(F)(F)F)cc2C(F)(F)F)c2ccc(F)cc2)nn1
inactive: viability, T/C [1] 93.8% | viability, T/C [2] 86.4% | viability, T/C [3] 83.8% | viability, T/C [4] 101% | viability, T/C (second compound 0.0316 µM, first compound 3.16 µM) 110% | viability, T/C (second compound 0.0316 µM, first compound 10 µM) 92.1% | viability, T/C [5] 96.9% | viability, T/C [6] 79.8% | viability, T/C [7] 96.8% | viability, T/C [8] 107% | viability, T/C (second compound 0.1 µM, first compound 3.16 µM) 102% | viability, T/C (second compound 0.1 µM, first compound 10 µM) 95.2% | viability, T/C [9] 104% | viability, T/C [10] 81.3% | viability, T/C [11] 88.4% | viability, T/C [12] 96.8% | viability, T/C (second compound 0.316 µM, first compound 3.16 µM) 104% | viability, T/C (second compound 0.316 µM, first compound 10 µM) 89.8% | viability, T/C [13] 95.5% | viability, T/C [14] 105% | viability, T/C [15] 106% | viability, T/C [16] 113% | viability, T/C (second compound 1 µM, first compound 3.16 µM) 104% | viability, T/C (second compound 1 µM, first compound 10 µM) 76.1% | viability, T/C [17] 92.4% | viability, T/C [18] 102% | viability, T/C [19] 91.7% | viability, T/C [20] 103% | viability, T/C (second compound 3.16 µM, first compound 3.16 µM) 102% | viability, T/C (second compound 3.16 µM, first compound 10 µM) 98.1% | viability, T/C [21] 116% | viability, T/C [22] 107% | viability, T/C [23] 120% | viability, T/C [24] 101% | viability, T/C (second compound 10 µM, first compound 3.16 µM) 127% | viability, T/C (second compound 10 µM, first compound 10 µM) 102%
> 10000 nM: IC50 (second compound 0.0316 µM) | IC50 (second compound 0.1 µM) | IC50 (second compound 0.316 µM) | IC50 (second compound 1 µM) | IC50 (second compound 3.16 µM) | IC50 (second compound 10 µM)
